Measurements reported in publication PMC6706627, “Mapping Interactions of Microbial Metabolites with Human G-Protein-Coupled Receptors” (Cell Host & Microbe, 2019).
Each block holds one molecule with its values, some of them ahead of it. Where a SMILES comes first, the peptide text is derived from it. Bridges are numbered along the chain shown (N, C = ends). [ ]: non-standard residue; d: D form.

Tests used:
PTGIR = PTGIR (Homo sapiens, UniProt P43119); test: cell-based; parameters: species or system recombinant GPCR reporter cell lines; PathHunter beta-arrestin recruitment (beta-galactosidase complementation), chemiluminescence, agonist mode, Eurofins DiscoverX
PTGIR, sequence (P43119 whole entry): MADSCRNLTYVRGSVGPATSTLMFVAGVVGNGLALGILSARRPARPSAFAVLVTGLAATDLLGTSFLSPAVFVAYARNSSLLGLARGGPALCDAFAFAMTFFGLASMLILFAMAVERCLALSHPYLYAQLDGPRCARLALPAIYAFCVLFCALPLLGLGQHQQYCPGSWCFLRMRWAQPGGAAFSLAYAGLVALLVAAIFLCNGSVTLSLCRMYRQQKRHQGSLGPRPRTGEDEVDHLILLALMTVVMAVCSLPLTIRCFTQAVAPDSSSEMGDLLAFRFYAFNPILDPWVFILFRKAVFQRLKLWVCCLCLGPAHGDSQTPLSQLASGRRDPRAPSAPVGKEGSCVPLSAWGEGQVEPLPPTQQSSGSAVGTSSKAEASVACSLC

GPR109B [1] = target: T1, GPR109B (Homo sapiens, UniProt P49019); test: PathHunter beta-arrestin recruitment assay, dose-response of the known agonist; format: cell-based
T1 construct: gene HCAR3
T1 sequence (P49019 whole entry): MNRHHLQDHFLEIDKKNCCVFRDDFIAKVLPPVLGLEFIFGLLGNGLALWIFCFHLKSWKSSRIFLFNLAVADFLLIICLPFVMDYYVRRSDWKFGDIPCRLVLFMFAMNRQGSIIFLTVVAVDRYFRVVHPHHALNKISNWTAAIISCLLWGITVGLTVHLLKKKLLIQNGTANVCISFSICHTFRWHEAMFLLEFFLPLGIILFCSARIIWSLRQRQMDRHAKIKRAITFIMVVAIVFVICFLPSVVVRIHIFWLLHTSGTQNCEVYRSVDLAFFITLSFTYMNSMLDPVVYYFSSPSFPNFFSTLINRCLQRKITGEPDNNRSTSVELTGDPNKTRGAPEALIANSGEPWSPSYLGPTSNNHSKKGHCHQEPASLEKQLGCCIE
Source text: PathHunter beta-arrestin recruitment assay, dose-response of the known agonist on GPR109B | This previously unknown GPR109B agonist elicited a similar GPCR response to 3-hydroxyoctanoic acid

OXER1 = OXER1 (Homo sapiens, UniProt Q8TDS5); test: cell-based; parameters: species or system recombinant GPCR reporter cell lines; PathHunter beta-arrestin recruitment (beta-galactosidase complementation), chemiluminescence, agonist mode, Eurofins DiscoverX
OXER1, sequence (Q8TDS5 whole entry): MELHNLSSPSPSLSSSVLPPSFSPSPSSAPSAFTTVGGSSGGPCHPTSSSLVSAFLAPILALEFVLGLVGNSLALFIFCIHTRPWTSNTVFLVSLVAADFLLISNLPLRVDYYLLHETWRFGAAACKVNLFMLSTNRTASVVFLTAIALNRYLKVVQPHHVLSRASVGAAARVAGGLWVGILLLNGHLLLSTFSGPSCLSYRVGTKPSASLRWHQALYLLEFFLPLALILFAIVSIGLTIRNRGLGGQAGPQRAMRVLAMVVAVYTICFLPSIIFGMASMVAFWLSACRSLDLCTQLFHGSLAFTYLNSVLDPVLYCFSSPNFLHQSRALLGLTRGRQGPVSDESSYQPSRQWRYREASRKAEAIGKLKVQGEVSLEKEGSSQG

EBI2 = target: T2, EBI2 (Homo sapiens, UniProt P32249); test: cell-based; parameters: species or system recombinant GPCR reporter cell lines; PathHunter beta-arrestin recruitment (beta-galactosidase complementation), chemiluminescence, agonist mode, Eurofins DiscoverX; details: agonist; read-out: RC50 (the source's name)
T2 construct: gene GPR183
T2 sequence (P32249 whole entry): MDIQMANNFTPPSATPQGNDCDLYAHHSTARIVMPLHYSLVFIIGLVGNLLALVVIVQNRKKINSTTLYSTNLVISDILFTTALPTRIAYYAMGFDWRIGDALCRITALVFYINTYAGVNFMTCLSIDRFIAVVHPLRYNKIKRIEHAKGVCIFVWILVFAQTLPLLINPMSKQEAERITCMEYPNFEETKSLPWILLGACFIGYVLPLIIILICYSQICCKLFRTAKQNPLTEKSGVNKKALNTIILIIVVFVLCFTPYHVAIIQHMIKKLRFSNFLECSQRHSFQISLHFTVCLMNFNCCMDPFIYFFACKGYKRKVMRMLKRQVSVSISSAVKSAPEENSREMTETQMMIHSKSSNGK

[2] = target: T3, brain angiogenesis factor 1 (BAI1) receptor (Homo sapiens, UniProt O14514); test: PathHunter beta-arrestin recruitment assay in a recombinant reporter cell line, dose-response; format: cell-based
T3 construct: gene ADGRB1
T3 sequence (O14514 31-1584): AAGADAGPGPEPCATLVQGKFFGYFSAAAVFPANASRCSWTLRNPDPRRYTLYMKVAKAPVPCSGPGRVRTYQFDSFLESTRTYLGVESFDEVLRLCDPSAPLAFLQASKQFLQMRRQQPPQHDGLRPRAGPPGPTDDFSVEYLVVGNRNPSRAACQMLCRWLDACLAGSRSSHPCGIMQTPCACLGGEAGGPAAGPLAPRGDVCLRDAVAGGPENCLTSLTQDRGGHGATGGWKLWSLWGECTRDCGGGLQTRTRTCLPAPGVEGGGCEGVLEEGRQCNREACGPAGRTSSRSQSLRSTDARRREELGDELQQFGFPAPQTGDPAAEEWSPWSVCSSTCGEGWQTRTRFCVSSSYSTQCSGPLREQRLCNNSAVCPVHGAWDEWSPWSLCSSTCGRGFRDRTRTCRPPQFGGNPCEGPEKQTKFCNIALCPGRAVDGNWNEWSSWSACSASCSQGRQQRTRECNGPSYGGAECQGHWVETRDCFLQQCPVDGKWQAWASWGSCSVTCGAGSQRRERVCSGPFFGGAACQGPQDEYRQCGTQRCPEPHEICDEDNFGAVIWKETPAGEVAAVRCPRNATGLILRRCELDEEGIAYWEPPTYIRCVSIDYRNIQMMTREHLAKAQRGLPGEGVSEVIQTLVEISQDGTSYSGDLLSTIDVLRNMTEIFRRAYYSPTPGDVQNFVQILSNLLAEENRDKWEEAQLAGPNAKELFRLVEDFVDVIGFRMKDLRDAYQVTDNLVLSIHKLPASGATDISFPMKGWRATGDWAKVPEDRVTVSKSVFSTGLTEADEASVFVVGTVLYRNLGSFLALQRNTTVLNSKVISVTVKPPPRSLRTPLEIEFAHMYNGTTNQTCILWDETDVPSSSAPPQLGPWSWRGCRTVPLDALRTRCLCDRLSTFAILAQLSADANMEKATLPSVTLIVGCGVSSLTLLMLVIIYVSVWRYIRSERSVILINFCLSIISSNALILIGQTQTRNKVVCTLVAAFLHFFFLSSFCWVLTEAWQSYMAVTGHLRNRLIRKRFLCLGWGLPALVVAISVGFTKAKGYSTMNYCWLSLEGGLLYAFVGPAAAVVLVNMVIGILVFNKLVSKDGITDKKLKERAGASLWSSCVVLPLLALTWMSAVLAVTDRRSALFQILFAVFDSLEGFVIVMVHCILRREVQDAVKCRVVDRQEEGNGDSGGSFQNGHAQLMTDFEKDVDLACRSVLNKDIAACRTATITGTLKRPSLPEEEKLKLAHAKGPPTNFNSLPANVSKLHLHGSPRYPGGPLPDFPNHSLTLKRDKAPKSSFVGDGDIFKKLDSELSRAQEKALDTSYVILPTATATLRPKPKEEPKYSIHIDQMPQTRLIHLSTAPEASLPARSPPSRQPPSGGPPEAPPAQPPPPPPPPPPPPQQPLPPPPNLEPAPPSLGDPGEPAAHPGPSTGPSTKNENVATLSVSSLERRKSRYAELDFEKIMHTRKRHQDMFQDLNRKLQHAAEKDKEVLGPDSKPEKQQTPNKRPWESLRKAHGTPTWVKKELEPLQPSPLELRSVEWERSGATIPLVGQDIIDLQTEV

MRGPRX2 = target: T4, MRGPRX2 (Homo sapiens, UniProt Q96LB1); test: cell-based; parameters: species or system recombinant GPCR reporter cell lines; PathHunter beta-arrestin recruitment (beta-galactosidase complementation), chemiluminescence, agonist mode, Eurofins DiscoverX
T4 sequence (Q96LB1 1-330): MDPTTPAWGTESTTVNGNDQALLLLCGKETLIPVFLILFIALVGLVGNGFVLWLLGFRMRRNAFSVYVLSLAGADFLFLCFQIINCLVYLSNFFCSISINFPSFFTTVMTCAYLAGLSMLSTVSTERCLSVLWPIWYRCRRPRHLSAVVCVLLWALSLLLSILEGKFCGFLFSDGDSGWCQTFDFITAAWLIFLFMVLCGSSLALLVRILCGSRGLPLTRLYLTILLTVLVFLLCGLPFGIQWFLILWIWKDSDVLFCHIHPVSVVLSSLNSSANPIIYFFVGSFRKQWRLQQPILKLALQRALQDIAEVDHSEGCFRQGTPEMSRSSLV

FFAR1 = FFAR1 (Homo sapiens, UniProt O14842); test: cell-based; parameters: species or system recombinant GPCR reporter cell lines; PathHunter beta-arrestin recruitment (beta-galactosidase complementation), chemiluminescence, agonist mode, Eurofins DiscoverX
FFAR1, sequence (O14842 whole entry): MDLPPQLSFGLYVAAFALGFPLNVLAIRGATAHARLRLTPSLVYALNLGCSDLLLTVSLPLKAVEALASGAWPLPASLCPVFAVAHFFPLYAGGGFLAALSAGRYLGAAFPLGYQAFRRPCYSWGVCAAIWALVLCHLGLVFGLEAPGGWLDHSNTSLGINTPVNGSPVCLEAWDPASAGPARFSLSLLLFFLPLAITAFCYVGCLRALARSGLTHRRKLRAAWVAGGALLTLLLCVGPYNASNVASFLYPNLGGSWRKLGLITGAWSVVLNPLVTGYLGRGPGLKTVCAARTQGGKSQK

KISS1R = KISS1R (Homo sapiens, UniProt Q969F8); test: cell-based; parameters: species or system recombinant GPCR reporter cell lines; PathHunter beta-arrestin recruitment (beta-galactosidase complementation), chemiluminescence, agonist mode, Eurofins DiscoverX
KISS1R, sequence (Q969F8 whole entry): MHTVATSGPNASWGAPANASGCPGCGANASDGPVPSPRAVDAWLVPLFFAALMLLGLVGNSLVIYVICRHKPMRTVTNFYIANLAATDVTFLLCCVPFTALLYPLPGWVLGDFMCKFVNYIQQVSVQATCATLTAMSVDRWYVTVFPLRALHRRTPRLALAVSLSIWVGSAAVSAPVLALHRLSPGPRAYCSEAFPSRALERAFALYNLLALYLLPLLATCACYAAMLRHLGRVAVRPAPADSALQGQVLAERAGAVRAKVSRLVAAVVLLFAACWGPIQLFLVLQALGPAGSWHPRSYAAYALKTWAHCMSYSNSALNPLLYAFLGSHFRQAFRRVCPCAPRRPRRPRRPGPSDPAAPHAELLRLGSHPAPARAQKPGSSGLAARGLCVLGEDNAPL

GPR119 = target: T5, GPR119 (Homo sapiens, UniProt Q8TDV5); test: cell-based; parameters: species or system recombinant GPCR reporter cell lines; PathHunter beta-arrestin recruitment (beta-galactosidase complementation), chemiluminescence, agonist mode, Eurofins DiscoverX
T5 sequence (Q8TDV5 1-335): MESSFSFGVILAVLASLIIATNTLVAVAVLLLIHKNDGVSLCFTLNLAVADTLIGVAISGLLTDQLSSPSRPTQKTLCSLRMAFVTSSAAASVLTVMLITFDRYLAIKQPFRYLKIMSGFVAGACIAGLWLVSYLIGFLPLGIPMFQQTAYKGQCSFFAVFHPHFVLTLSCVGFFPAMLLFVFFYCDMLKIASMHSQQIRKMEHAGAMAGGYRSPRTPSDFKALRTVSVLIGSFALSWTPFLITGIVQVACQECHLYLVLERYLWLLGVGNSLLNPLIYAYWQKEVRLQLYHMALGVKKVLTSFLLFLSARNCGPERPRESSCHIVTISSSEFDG

CRTH2 = target: T6, CRTH2 (Homo sapiens, UniProt Q9Y5Y4); test: cell-based; parameters: species or system recombinant GPCR reporter cell lines; PathHunter beta-arrestin recruitment (beta-galactosidase complementation), chemiluminescence, agonist mode, Eurofins DiscoverX
T6 construct: gene PTGDR2
T6 sequence (Q9Y5Y4 1-395): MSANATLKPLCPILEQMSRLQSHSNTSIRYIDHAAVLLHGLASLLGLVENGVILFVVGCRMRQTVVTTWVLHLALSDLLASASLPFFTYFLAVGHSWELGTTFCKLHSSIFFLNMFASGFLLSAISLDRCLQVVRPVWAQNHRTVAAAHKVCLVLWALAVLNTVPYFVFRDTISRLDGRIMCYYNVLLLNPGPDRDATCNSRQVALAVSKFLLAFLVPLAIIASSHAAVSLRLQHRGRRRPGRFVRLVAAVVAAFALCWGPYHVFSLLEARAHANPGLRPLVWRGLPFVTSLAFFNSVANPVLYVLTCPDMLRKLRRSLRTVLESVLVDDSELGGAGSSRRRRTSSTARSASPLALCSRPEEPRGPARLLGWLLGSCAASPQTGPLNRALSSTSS

PTHR2 = target: T7, PTHR2 (Homo sapiens, UniProt P49190); test: cell-based; parameters: species or system recombinant GPCR reporter cell lines; PathHunter beta-arrestin recruitment (beta-galactosidase complementation), chemiluminescence, agonist mode, Eurofins DiscoverX
T7 construct: gene PTH2R
T7 sequence (P49190 whole entry): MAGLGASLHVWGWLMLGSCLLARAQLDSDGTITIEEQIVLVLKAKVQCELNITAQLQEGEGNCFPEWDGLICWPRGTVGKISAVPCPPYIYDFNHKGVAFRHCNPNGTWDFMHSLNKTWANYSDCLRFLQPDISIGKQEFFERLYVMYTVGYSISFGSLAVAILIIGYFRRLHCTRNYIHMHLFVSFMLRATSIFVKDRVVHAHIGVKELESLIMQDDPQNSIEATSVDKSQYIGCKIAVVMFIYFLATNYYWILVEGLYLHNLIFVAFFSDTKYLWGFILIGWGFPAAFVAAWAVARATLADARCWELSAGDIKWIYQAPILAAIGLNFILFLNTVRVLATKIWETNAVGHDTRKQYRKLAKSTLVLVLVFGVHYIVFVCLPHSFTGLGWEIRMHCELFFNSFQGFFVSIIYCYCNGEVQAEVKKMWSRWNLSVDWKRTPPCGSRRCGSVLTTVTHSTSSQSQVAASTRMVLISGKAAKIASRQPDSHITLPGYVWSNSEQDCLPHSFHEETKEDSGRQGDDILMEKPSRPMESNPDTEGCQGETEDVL

[3] = target: T8, urotensin 2 receptor (UTR2) (Homo sapiens, UniProt Q9UKP6); test: PathHunter beta-arrestin recruitment assay in a recombinant reporter cell line, dose-response; format: cell-based
T8 construct: gene UTS2R
T8 sequence (Q9UKP6 1-389): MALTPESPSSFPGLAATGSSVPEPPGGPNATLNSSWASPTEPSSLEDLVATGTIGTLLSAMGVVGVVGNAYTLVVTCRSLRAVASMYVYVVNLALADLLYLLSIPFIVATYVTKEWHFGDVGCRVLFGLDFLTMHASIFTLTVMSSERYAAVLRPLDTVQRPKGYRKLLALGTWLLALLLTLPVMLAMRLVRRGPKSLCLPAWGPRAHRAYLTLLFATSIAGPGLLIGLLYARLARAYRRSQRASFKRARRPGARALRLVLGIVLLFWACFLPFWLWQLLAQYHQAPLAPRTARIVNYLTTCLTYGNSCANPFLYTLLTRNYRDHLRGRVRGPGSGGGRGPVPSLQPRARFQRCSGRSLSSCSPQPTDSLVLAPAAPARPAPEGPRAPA

[4] = target: T9, neuromedin receptor 1 (NMU1R) (Homo sapiens, UniProt Q9HB89); test: as above; format: cell-based
T9 construct: gene NMUR1
T9 sequence (Q9HB89 1-426): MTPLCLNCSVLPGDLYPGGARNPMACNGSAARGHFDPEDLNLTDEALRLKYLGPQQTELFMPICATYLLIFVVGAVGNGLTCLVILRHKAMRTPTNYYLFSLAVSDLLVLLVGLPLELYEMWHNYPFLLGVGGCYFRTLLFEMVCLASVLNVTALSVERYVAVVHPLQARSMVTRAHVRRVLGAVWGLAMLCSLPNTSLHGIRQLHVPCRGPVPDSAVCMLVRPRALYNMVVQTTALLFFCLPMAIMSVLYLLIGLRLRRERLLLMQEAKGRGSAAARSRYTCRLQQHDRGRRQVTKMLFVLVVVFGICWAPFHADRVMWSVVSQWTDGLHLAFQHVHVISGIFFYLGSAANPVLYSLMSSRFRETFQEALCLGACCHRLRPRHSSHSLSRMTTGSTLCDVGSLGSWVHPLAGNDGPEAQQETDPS

HRH4 = HRH4 (Homo sapiens, UniProt Q9H3N8); test: PathHunter beta-arrestin recruitment assay in a recombinant reporter cell line, commercial standard, dose-response; format: cell-based
GPR109B [5] = target: T1, GPR109B; test: PathHunter beta-arrestin recruitment assay in a recombinant reporter cell line, dose-response; format: cell-based

EC50 (PTHR2): 0.849 nM
Structure (SMILES): CCCCC#CCCCCCCCC(=O)OC [TIP-39]

EC50 [3]: 191000 nM
EC50 [4]: 125000 nM
Structure (SMILES): CCC(C)CCCCCCCCCCC(=O)O (stereo not drawn) [aiC15:0, 12-methyltetradecanoic acid]

EC50 (HRH4): 1100 nM
Structure (SMILES): NCCCCCN [cadaverine]

EC50 (GPR109B [5]): 208000 nM
Structure (SMILES): O=C(O)CCc1ccccc1 [phenylpropanoic acid]

The remaining lines, values behind:

Structure (SMILES): CC#CCC(C)[C@H](O)/C=C/[C@@H]1[C@H]2c3cccc(CCCC(=O)O)c3O[C@H]2C[C@H]1O (mixture of isomers) [Beraprost]
EC50 (PTGIR): 311 nM

Structure (SMILES): CCCCCC(O)CC(=O)O (stereo not drawn) [3-hydroxyoctanoic acid]
EC50 (GPR109B [1]): 304000 nM

Structure (SMILES): CCCCC/C=C\C/C=C\C/C=C\C=C\C(=O)CCCC(=O)O [5-OxoETE]
EC50 (OXER1): 693 nM

Structure (SMILES): C[C@H](CCCC(C)(C)O)[C@H]1CC[C@H]2[C@@H]3[C@H](O)C=C4C[C@@H](O)CC[C@]4(C)[C@H]3CC[C@]12C [7a,25-Dihydroxycholesterol]
EC50 (EBI2): 191 nM

Structure (SMILES): CCCCCCC1CC1CCCCCCCC(=O)O (stereo not drawn) [9,10-methylenehexadecanoic acid, cis-9,10-methylenehexadecanoic acid]
EC50 [2]: 11000 nM

Structure (SMILES): C[C@@H](O)[C@@H]1NC(=O)[C@@H](CCCCN)NC(=O)[C@H](Cc2c[nH]c3ccccc23)NC(=O)[C@H](Cc2ccccc2)NC(=O)[C@H](Cc2ccccc2)NC(=O)[C@H](CC(N)=O)NC(=O)[C@H](CCCCN)NC(=O)[C@@H](NC(=O)[C@@H]2CCCN2)CSSC[C@@H](C(=O)N[C@@H](CCCCN)C(=O)O)NC(=O)[C@H](CO)NC(=O)[C@H](CO)NC(=O)[C@@H](Cc2ccccc2)NC1=O [Cortistatin 14] (H-PCKNFFW[dK]T[dF]SSCK-OH; disulfide 2-13)
EC50 (MRGPRX2): 635 nM

Structure (SMILES): O=C(O)CCc1ccc(NCc2cccc(Oc3ccccc3)c2)cc1 [GW9508]
EC50 (FFAR1): 288 nM

Structure (SMILES): CC(C)C[C@H](NC(=O)CNC(=O)[C@H](Cc1ccccc1)NC(=O)[C@H](CO)NC(=O)[C@H](CC(N)=O)NC(=O)[C@H](Cc1c[nH]c2ccccc12)NC(=O)[C@H](CC(N)=O)NC(=O)[C@@H](N)Cc1ccc(O)cc1)C(=O)N[C@@H](CCCNC(=N)N)C(=O)N[C@@H](Cc1ccccc1)C(N)=O [Kisspeptin-10]
EC50 (KISS1R): 11.7 nM

Structure (SMILES): CCCCCCCC/C=C\CCCCCCCC(=O)NCCO [Oleoyl Ethanolamide]
EC50 (GPR119): 1740 nM

Structure (SMILES): CCCCC[C@H](O)/C=C/[C@H]1C(=O)C[C@H](O)[C@@H]1C/C=C\CCCC(=O)O [PGD2]
EC50 (CRTH2): 19.3 nM
